According to patent US9145354B2, “Pharmaceutical compounds” (priority 2011, dated 2015):
Where two headings read alike, the source gives them in different places.

Target: full length NS3/4a (Hepatitis C virus genotype 1b (isolate BK) (HCV), UniProt P26663)
Experiment: NS3 Protease Assay (Example A), FRET-based
Type: biochemical
Procedure: The HCV NS3 protease functions have been extensively studied and are considered as potential targets for antiviral therapy: see for example the many references listed in the introductory section of this application. Therefore, the activity of the compounds of the invention as anti-HCV agents was assessed using a full length HCV NS3 protease.
The protease activity of the full length NS3/4a was measured using a FRET-based assay utilizing a peptide substrate derived from the NS4A/B cleavage site (Anaspec) and labelled at one end with a quencher (QXL520) and at the other with a fluorophore (5-FAMsp). NS3/4a (produced in-house by literature methods) was incubated with test compounds and peptide substrate in 50 mM Tris pH8, 20 mM DTT, 1% CHAPS, 10% glycerol and 5% DMSO. The reaction was followed by monitoring the change in fluorescence on a Molecular Devices Gemini plate reader for 30 minutes at room temperature. Initial rates were calculated from the progress curves using SoftMax Pro (Molecular Devices). IC50 values were then calculated from replicate curves using Prism GraphPad software.

[1] = HCV NS3 protease assay, full length NS3/4a, read-out: Assay A IC50 (μM) average
[2] = read-out: IC50 against the protease activity of the full length NS3/4a
[3] = stated as IC50 less than 30 μM or at least 40% inhibition at a concentration of 100 μM, read-out: IC50 against the protease activity of the full length NS3/4a

Sequence of full length NS3/4a (P26663 1027-1657): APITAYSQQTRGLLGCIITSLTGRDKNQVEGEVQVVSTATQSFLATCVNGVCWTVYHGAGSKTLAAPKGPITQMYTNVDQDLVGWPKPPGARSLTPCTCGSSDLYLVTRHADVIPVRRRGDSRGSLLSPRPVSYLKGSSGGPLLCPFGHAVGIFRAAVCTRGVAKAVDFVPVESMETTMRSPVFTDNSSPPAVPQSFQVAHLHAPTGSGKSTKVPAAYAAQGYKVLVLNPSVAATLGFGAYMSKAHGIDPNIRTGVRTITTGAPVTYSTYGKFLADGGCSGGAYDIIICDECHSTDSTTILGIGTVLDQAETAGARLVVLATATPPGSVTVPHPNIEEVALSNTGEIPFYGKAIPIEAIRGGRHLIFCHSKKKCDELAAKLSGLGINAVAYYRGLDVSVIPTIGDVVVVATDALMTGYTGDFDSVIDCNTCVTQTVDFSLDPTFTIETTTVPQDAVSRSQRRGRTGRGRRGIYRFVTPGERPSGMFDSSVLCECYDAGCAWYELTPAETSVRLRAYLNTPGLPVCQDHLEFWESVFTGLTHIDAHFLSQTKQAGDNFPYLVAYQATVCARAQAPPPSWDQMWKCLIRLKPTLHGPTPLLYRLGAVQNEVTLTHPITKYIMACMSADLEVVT

SMILES | IC50 [1] | IC50 [2] | further results
CCC(NC1CCCC1C(N)=O)c1ccc(Cl)c(C(=O)c2ccc(N)nc2)c1F (single isomer, unassigned) [Example 126, 2-{[1-{3-[(6-aminopyridin-3-yl)carbonyl]-4-chloro-2-fluorophenyl}propyl]amino} cyclopentane-1-carboxamide] | 0.12 µM | < 1 µM | 
CCC(NC1CCCC1C(N)=O)c1ccc(Cl)c(C(=O)c2ccc(N)nc2)c1F (single isomer, unassigned) [Example 127, 2-{[1-{3-[(6-aminopyridin-3-yl)carbonyl]-4-chloro-2-fluorophenyl}propyl]amino} cyclopentane-1-carboxamide] | 1.6 µM | 1 to 5 µM | 
CCC(NC1CCCC1C(N)=O)c1ccc(Cl)c(C(=O)c2ccc(N)nc2)c1F (single isomer, unassigned) [Example 161, 2-{[1-{3-[(6-aminopyridin-3-yl)carbonyl]-4-chloro-2-fluorophenyl}propyl]amino} cyclopentane-1-carboxamide] |  |  | inhibition at 10 µM (@ 10 uM): 60%; IC50 [3]: < 30 µM
CCC(NC[C@H](C)C(N)=O)c1ccc(Cl)c(C(=O)c2cccnc2)c1F (stereo in doubt) [Example 175, (2S)-3-{[(1R)-1-{4-chloro-2-fluoro-3-[(pyridin-3-yl)carbonyl]phenyl}-propyl]amino}-2-methylpropanamide] | 1.1 µM | 1 to 5 µM | 
CC[C@@H](N)c1ccc(Cl)c(C(=O)c2ccc(O)cc2)c1F (stereo in doubt) [Example 193, [3-(1-Amino-propyl)-6-chloro-2-fluoro-phenyl]-(4-hydroxy-phenyl)-methanone] | 0.31 µM | < 1 µM | 
CC[C@@H](N)c1ccc(Cl)c(C(=O)c2ccc(N)nc2)c1F [Example 1, 5-({3-[(1R)-1-aminopropyl]-6-chloro-2-fluorophenyl}carbonyl)-pyridin-2-amine] | 0.089 µM | < 1 µM | 
CC[C@@H](N)c1ccc(Cl)c(C(=O)c2cccnc2)c1F [Example 2, (1R)-1-{4-chloro-2-fluoro-3-[(pyridin-3-yl)carbonyl]phenyl}-propan-1-amine] | 1.4 µM | 1 to 5 µM | 
CC[C@@H](N)c1ccc(Cl)c(C(=O)c2cnc(N)cn2)c1F [Example 3, 5-({3-[(1R)-1-aminopropyl]-6-chloro-2-fluorophenyl}carbonyl)-pyrazin-2-amine] | 1.3 µM | 1 to 5 µM | 
CC[C@@H](N)c1ccc(Cl)c(C(=O)c2ccc(N)cn2)c1F [Example 5, 6-({3-[(1R)-1-aminopropyl]-6-chloro-2-fluorophenyl}carbonyl)-pyridin-3-amine] |  | 1 to 5 µM | inhibition at 3 µM (@ 3 uM): 55%
CC[C@H](N)c1ccc(Cl)c(C(=O)c2ccccc2)c1F [Example 6, (1S)-1-(3-benzoyl-4-chloro-2-fluorophenyl)propan-1-amine] |  | < 1 µM | inhibition at 0.3 µM (@ 0.3 uM): 80%
CC[C@@H](N)c1ccc(Cl)c(C(=O)c2cccc(F)c2)c1F [Example 7, (1R)-1-{4-chloro-2-fluoro-3-[(3-fluorophenyl)carbonyl]-phenyl}propan-1-amine] | 0.38 µM | < 1 µM | 
CC[C@@H](N)c1ccc(Cl)c(C(=O)c2ccc(F)cc2)c1F [Example 8, (1R)-1-{4-chloro-2-fluoro-3-[(4-fluorophenyl)carbonyl]-phenyl}propan-1-amine] | 0.19 µM | < 1 µM | 
CC[C@@H](N)c1ccc(Cl)c(C(=O)c2ccncn2)c1F [Example 10, (1R)-1-{4-chloro-2-fluoro-3-[(pyrimidin-4-yl)carbonyl]phenyl}-propan-1-amine] | 3.5 µM | 1 to 5 µM | 
CC[C@@H](N)c1ccc(Cl)c(C(=O)c2cncnc2)c1F [Example 12, (1R)-1-{4-chloro-2-fluoro-3-[(pyrimidin-5-yl)carbonyl]phenyl}-propan-1-amine] |  |  | inhibition at 30 µM: 47%; IC50 [3]: < 30 µM
CC[C@@H](N)c1ccc(Cl)c(C(=O)c2ccc(F)c(F)c2)c1F [Example 13, (1R)-1-{4-chloro-3-[(3,4-difluorophenyl)carbonyl]-2-fluorophenyl}propan-1-amine] | 0.83 µM | < 1 µM | 
CC[C@@H](N)c1ccc(Cl)c(C(=O)c2ccccn2)c1F [Example 14, (1R)-1-{4-chloro-2-fluoro-3-[(pyridin-2-yl)carbonyl]phenyl}propan-1-amine] | 2.5 µM | 1 to 5 µM | 
CC[C@@H](N)c1ccc(Cl)c(C(=O)c2ccncc2)c1F [Example 15, (1R)-1-{4-chloro-2-fluoro-3-[(pyridin-4-yl)carbonyl]phenyl}propan-1-amine] | 0.84 µM | < 1 µM | 
CC[C@@H](N)c1ccc(Cl)c(C(=O)c2ccns2)c1F [Example 16, (1R)-1-{4-chloro-2-fluoro-3-[(1,2-thiazol-5-yl)carbonyl]phenyl}propan-1-amine] | 0.47 µM | < 1 µM | 

SMILES | IC50 [1] | IC50 [2] | further results
CC[C@@H](N)c1ccc(Cl)c(C(=O)c2cncc(OC)c2)c1F [Example 17, (1R)-1-{4-chloro-2-fluoro-3-[(5-methoxypyridin-3-yl)carbonyl]phenyl}propan-1-amine] |  |  | inhibition at 100 µM (@ 100 uM): 65%
CC[C@@H](N)c1ccc(Cl)c(C(=O)c2cccc(C#N)c2)c1F [Example 18, 3-({3-[(1R)-1-aminopropyl]-6-chloro-2-fluorophenyl}carbonyl)benzonitrile] | 0.62 µM | < 1 µM | 
CC[C@@H](N)c1ccc(Cl)c(C(=O)c2ccc(C(=O)O)nc2)c1F [Example 19, 5-({3-[(1R)-1-aminopropyl]-6-chloro-2-fluorophenyl}carbonyl)pyridine-2-carboxylic acid] | 20 µM |  | IC50 [3]: < 30 µM
CC[C@@H](N)c1ccc(Cl)c(C(=O)c2nccs2)c1F [Example 20, (1R)-1-{4-chloro-2-fluoro-3-[(1,3-thiazol-2-yl)carbonyl]phenyl}propan-1-amine] | 0.82 µM | < 1 µM | 
CC[C@@H](N)c1ccc(Cl)c(C(=O)c2cc(C)on2)c1F [Example 21, (1R)-1-{4-chloro-2-fluoro-3-[(5-methyl-1,2-oxazol-3-yl)carbonyl]phenyl}propan-1-amine] | 1 µM | 1 to 5 µM | 
CC[C@@H](N)c1ccc(Cl)c(C(=O)c2ccc(C(N)=O)nc2)c1F [Example 22, 5-({3-[(1R)-1-aminopropyl]-6-chloro-2-fluorophenyl}carbonyl)pyridine-2-carboxamide] | 1.8 µM | 1 to 5 µM | 
[2H]C([2H])([2H])C([2H])([2H])[C@@H](N)c1ccc(Cl)c(C(=O)c2ccccc2)c1F [Example 23, (1R)-1-(3-benzoyl-4-chloro-2-fluorophenyl)(2,2,3,3,3-D)propan-1-amine] | 0.11 µM | < 1 µM | 
[2H]C([2H])([2H])C([2H])([2H])[C@H](N)c1ccc(Cl)c(C(=O)c2ccccc2)c1F [Example 24, (1S)-1-(3-benzoyl-4-chloro-2-fluorophenyl)(2,2,3,3,3-D)propan-1-amine] | 0.075 µM | < 1 µM | 
CC[C@@H](N)c1ccc(Cl)c(C(=O)c2ccc[n+]([O-])c2)c1F [Example 25, [3-((R)-1-Amino-propyl)-6-chloro-2-fluoro-phenyl]-(1-oxy-pyridin-3-yl)-methanone] |  |  | inhibition at 30 µM: 59%; IC50 [3]: < 30 µM
CC[C@H](N)c1ccc(Cl)c(C(=O)c2cccnc2)c1F [Example 26, (1S)-1-{4-chloro-2-fluoro-3-[(pyridin-3-yl)carbonyl]phenyl}propan-1-amine] | 0.63 µM | < 1 µM | 
N[C@@H](c1ccc(Cl)c(C(=O)c2ccc(F)cc2)c1F)C1CC1 [Example 27, (R)-{4-chloro-2-fluoro-3-[(4-fluorophenyl)carbonyl]phenyl}(cyclopropyl)methanamine] | 0.22 µM | < 1 µM | 
N[C@@H](c1ccc(Cl)c(C(=O)c2cccnc2)c1F)C1CC1 [Example 28, (R)-{4-chloro-2-fluoro-3-[(pyridin-3-yl)carbonyl]phenyl}(cyclopropyl)methanamine] | 1.5 µM | 1 to 5 µM | 
CC[C@@H](N)c1ccc(Cl)c(C(=O)c2ccc(Cl)nc2)c1F [Example 29, (1R)-1-{4-chloro-3-[(6-chloropyridin-3-yl)carbonyl]-2-fluorophenyl}propan-1-amine] | 0.5 µM | < 1 µM | 
CC[C@H](N)c1ccc(Cl)c(C(=O)c2ccc(Cl)nc2)c1F [Example 30, (1S)-1-{4-chloro-3-[(6-chloropyridin-3-yl)carbonyl]-2-fluorophenyl}propan-1-amine] | 0.21 µM | < 1 µM | 
CC[C@H](N)c1ccc(Cl)c(C(=O)c2ccc(N)nc2)c1F [Example 31, 5-({3-[(1S)-1-aminopropyl]-6-chloro-2-fluorophenyl}carbonyl)pyridin-2-amine] | 0.18 µM | < 1 µM | 
N#Cc1ccc(C(=O)c2c(Cl)ccc([C@H](N)C3CC3)c2F)cc1 [Example 32, 4-({3-[(R)-amino(cyclopropyl)methyl]-6-chloro-2-fluorophenyl}carbonyl)benzonitrile] | 0.058 µM | < 1 µM | 
N[C@@H](c1ccc(Cl)c(C(=O)c2ccncc2)c1F)C1CC1 [Example 33, (R)-{4-chloro-2-fluoro-3-[(pyridin-4-yl)carbonyl]phenyl}(cyclopropyl)methanamine] | 0.71 µM | < 1 µM | 
